Where a name gives a salt, the structure may show the parent alone.
Molecular target: T1, androgen receptor AR (Homo sapiens, UniProt P10275, T878A)
T1 construct: degradation effect of compounds on androgen receptor AR in LNCaP cells; endogenous in cells; host or cells: LNCaP
T1 sequence (P10275 1-920 T878A): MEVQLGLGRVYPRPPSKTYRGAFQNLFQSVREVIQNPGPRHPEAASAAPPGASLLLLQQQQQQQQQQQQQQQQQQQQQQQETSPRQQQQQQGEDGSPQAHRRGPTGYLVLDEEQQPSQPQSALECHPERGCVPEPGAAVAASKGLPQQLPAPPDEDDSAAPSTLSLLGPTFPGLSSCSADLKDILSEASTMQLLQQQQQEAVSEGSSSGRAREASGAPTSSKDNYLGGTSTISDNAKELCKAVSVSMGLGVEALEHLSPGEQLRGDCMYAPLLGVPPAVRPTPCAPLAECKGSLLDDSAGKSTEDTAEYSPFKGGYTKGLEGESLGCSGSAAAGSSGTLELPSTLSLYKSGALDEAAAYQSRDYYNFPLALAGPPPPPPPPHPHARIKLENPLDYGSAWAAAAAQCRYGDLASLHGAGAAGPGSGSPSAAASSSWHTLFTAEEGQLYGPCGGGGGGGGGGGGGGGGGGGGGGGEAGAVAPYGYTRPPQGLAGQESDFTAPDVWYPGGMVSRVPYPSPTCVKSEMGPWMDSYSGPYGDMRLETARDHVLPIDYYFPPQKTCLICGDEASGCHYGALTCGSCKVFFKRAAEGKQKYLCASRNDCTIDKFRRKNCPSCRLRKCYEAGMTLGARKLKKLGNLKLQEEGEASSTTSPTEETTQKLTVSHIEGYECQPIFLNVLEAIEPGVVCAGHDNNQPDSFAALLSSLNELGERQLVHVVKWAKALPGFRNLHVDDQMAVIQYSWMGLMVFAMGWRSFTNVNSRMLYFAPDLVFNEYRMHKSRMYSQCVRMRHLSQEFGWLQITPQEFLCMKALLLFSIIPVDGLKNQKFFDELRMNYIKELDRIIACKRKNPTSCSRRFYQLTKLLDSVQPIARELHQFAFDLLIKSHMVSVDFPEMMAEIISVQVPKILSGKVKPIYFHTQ
Experiment: AR degradation in LNCaP cells by ICW method
Format: cell-based
Details: 24 hours
Experimental: Experimental purpose: To test the degradation effect of compounds on androgen receptor AR in LNCaP cells by ICW method.
Day 1 • 1. The cell culture medium, 0.025% trypsin, and phosphate buffered saline were preheated in a 37° C. water bath. • 2. Cells digested by trypsin were centrifuged at 1000 rpm for 5 minutes. The supernatant was discarded, and then the cells were resuspended in fresh culture medium. • 3. The cells were inoculated in a COL-Coated CellCarrier-384 plate at a density of 4 k/[…]/well. • 4. The 384 cell plate inoculated with cells was placed in an ultra-clean bench for 10 minutes. • 5. The cell plate was cultured overnight in a CO2 cell incubator.
Day 2 • 1. The compound at a concentration of 10 mM was diluted to 3 mM (3 μL+7 μL of dimethyl sulfoxide) before serial dilution. • 2. The compound was serially diluted 3-fold (4 μL+8 μL) in an Echo plate using Bravo. • 3. ZPE and HPE control wells were setup, and the ZPE control wells were dimethyl sulfoxide. • 4. The Echo plate was centrifuged at 1000 rpm for 1 minute, and then the diluted compound was transferred from the Echo plate to an intermediate plate using Echo with 200 nL/well. • 5. To the intermediate plate was added the cell culture medium using Multidrop combi with […]. • 6. The intermediate plate was shaken on a horizontal shaker for 1 minute to mix the compound well with the culture medium. • 7. The compound was transferred from the intermediate dilution plate to the cell plate using Bravo with 4 μL/well. • 8. The cell plate was shaken on the horizontal shaker for 1 minute, and centrifuged at 800 rpm for 30 seconds. • 9. The cell plate was returned to the CO2 incubator, and cultured for another 24 hours.
Day 3 • 1. 4% paraformaldehyde was removed from the refrigerator and brought to room temperature. • 2. The cell plate was removed from the incubator. • 3. To the cell plate was directly added 4% paraformaldehyde with 40 μL/well. • 4. The plate was incubated at room temperature for 20 minutes. • 5. The culture medium was manually shaken off from the cell plate, inverted in a centrifuge, and centrifuged at 800 rpm for 7 seconds to fully remove the residual culture medium. • 6. To the cell plate was added 4% paraformaldehyde with 25 μL/well. • 7. The plate was incubated at room temperature for 30 minutes. • 8. The paraformaldehyde solution was manually shaken off from the cell plate, inverted in the centrifuge, and centrifuged at 800 rpm for 7 seconds. • 9. 0.1% Trition was added with 25 μL/well. • 10. The plate was incubated at room temperature for 10 minutes. • 11. The 0.1% Trition solution was manually shaken off from the cell plate, inverted in the centrifuge, and centrifuged at 800 rpm for 7 seconds. • 12. Intercept® (PBS) blocking buffer was added with 25 μL/well. • 13. The plate was incubated at room temperature for 1 hour. • 14. The Intercept® (PBS) blocking buffer solution was manually shaken off from the cell plate, inverted in the centrifuge, and centrifuged at 800 rpm for 7 seconds. • 15. Primary antibody solution was added with 20 μL/well. The cell plate was placed in the centrifuge, and centrifuged at 800 rpm for 7 seconds. • 16. The cell plate was sealed, and then incubated overnight at 4° C.
Day 4 • 1. The primary antibody solution was manually shaken off from the cell plate, inverted in the centrifuge, and centrifuged at 800 rpm for 7 seconds. • 2. The plate was washed three times with 110 μL of PBS. • 3. The cell plate was inverted in the centrifuge, and centrifuged at 800 rpm for 7 seconds. • 4. Secondary antibody and DAPI solution was added with 20 μL/well. The cell plate was placed in the centrifuge, and centrifuged at 800 rpm for 7 seconds. • 5. The plate was incubated at room temperature for 1 hour. • 6. The secondary antibody and DAPI solution was manually shaken off from the cell plate, inverted in the centrifuge, and centrifuged at 800 rpm for 7 seconds. • 7. […]

Structure (SMILES)	DC50	Dmax
N#Cc1ccc(O[C@H]2CC[C@H](NC(=O)c3ccc(N4CCC(CN5CCN(c6cccc7c6ccc6occ(C8CCC(=O)NC8=O)c67)CC5)CC4)nn3)CC2)cc1Cl (stereo partly shown) [Hydrochloride of WX015]	13.7 nM	102%
CC1(C)C(=O)N(c2ccc(C#N)c(C(F)(F)F)c2)C(=S)N1c1ccc(OCCN2CCN(CC(=O)Nc3ccc4c(C5CCC(=O)NC5=O)coc4c3)CC2)c(F)c1 (stereo not shown) [WX002]	8.9 nM	72%

Reference: patent publication US20240190851A1, “FURAN FUSED RING-SUBSTITUTED GLUTARIMIDE COMPOUND” (MEDSHINE DISCOVERY INC., priority 2021, published 2024)
